# Experiments:
# [1] = test system: wild-type C57BL6 mice fed a high fat diet; assay: High fat diet six weeks with OX once per day, body weight and NMR body composition (Example 11); assay type: in vivo; conditions: HFD six weeks
# Method: To confirm these findings and investigate the role for OX in energy metabolism and to prevent obesity, wild-type C57BL6 mice were fed a high fat diet (HFD) for six weeks. During this period, half of the mice received OX intraperitoneally once per day, while the other half was injected with saline. Food intake and body weight of both groups were monitored weekly. OX-treated mice ate more, resisted weight gain, were visibly lean, and accumulated less fat. […] Fat and lean mass were determined by subjecting mice to nuclear magnetic resonance (NMR) (Bruker, The Woodlands, Tex., United States) following a four-hour fast. OX therapy had no impact on either the lean mass or total fluid content. FIG. 27 illustrates these findings. Weekly energy intake, cumulative energy consumed, body weight gain over six weeks, and differences in body size between the two groups of mice are depicted.
# [2] = test system: C57BL/6 mice; assay: Single intraperitoneal OX injection, indirect calorimetry (CLAMS) and iBAT analysis; assay type: in vivo; conditions: single 30 mg kg−1 i.p. dose
# Method: One dose of 30 mg kg^−1 OX was administered intraperitoneally in a single dose to 6-8 week C57BL/6 mice, and metabolic rates and energy expenditure of those mice were then compared to 1 mg kg^−1 isoproterenol- or vehicle (PBS) control-injected mice. Isoproterenol is a beta-sympathomimetic and serves as a reference for Ucp1 expression and brown fat activity. Metabolic rates were measured by indirect calorimetry using the Comprehensive Lab Animal Monitoring System (CLAMS, Columbus Instruments). Food and water were available ad libitum. Mice were acclimatized to individual cages for 24 hours prior to recording, and then underwent 24 hours of monitoring.
# Increased energy expenditure was positively correlated with iBAT lipolysis, as evident from depletion of fat droplets. […] As a consequence, core body temperature was elevated by OX injection.
# [3] = test system: C3H10T1/2 mesenchymal stem cells; assay: Brown fat differentiation of C3H10T1/2 mesenchymal stem cells (Oil Red O, immunoblot, qRT-PCR, MitoTracker); assay type: cell-based, mouse
# Method: OXR1 expression was confirmed in the undifferentiated mesenchymal stem cell line C3H10T1/2 cells (ATCC). Cells were grown to 50-70% confluence in high glucose DMEM supplemented with 10% FBS and differentiated in standard induction media supplemented with 100 nM human orexin A (cat. No. 24470, Anaspec), vehicle, or recombinant human BMP-7 (cat. No. 4579, BioVision, a potent inducer of […] differentiation) for three days, at which time cells reached 100% confluence. Cells were then incubated in adipogenic media for 7 days in the absence of […]. Cells were then stained with Oil Red O according to the following protocol. Cells were washed twice with phosphate-buffered saline (PBS), fixed with 10% buffered formalin for 1 hour at room temperature, washed twice in PBS, stained for 30 minutes at room temperature with a filtered Oil red O (Sigma) solution (0.5% Oil red O in isopropyl alcohol), washed twice with PBS, and stored in PBS for visualization under the inverted microscope (Olympus).
# Following OX treatment, greater than 90% of cells differentiated from an elongated fibroblastic morphology to a spherical one typical of differentiated fat cells. OXR1 expression in the differentiated mesenchymal cells was done using RT-PCR analysis of the OXR1 mRNA. FIG. 4 provides the Ct value OXR1 and the Ct value for 18S RNA is shown for comparison.
# To determine triglyceride content, BAT was homogenized in 1 ml of saline solution and Triglycerides Reagent Kit (Pointe Scientific) was used to determine triglyceride concentration in the tissue.
# Protein extracts from the treated mesenchymal cells was used to assess the expression of early adipogenic transcription factors that are known to function in adipogenesis. Specifically, immunoblotting was used to assess the expression of C/ebp-alpha, Ppar-γ1, Prdm16, Pgc1-alpha, and Ucp1 in the differentiated mesenchymal stem cells.
# The expression of several adipogenic inhibitors was assessed in the differentiated mesenchymal stem cells and control cells by qRT-PCR. Undifferentiated C3H10T1/2 cells abundantly express Necdin, preadpocyte factor-1 (Pref-1), and Wnt10a, all of which inhibit early adipogenic events. Preadipocytes must counteract an adipogenic block imposed by these factors in order to differentiate. […] FIG. 6 illustrates results from a PCR analysis of adipogenic inhibitors in C3H10T1/2 cells treated with BMP-7 or OX for 3 days followed by adipogenic induction for 7 days. Data are expressed as arbitrary units after normalization to 18S RNA.
# The cultured mesenchymal stem cells were assessed for the expression of a variety of regulators of adipogenesis and mitochondrial function, qRT-PCR was performed as follows: RNA was isolated using Trizol lysis reagent (Qiagen) and purified by RNeasy Mini columns (Qiagen), cDNA was produced using an RT-PCR kit (Applied Biosystems) and primers synthesized by Integrated DNA Technologies, and PCR reactions were run in duplicate for each sample and quantified in the ABI Prism 7000 Sequence Detection System (Applied Biosystems) The expression of each RNA was normalized to the 18S RNA level.
# Important adipogenic regulators such as C/ebp. […] Mitochondiral transcription factor (Tfam), cytochrome oxidase (Cox7a, Cox8b) and deiodinase-2 expression were elevated before exposure to adipogenic media, as shown in FIG. 10. […] Expression of stearoyl-CoA desaturase (Scd), an enzyme catalyzing the rate-limiting step in lipid biosynthesis, was also elevated over 100-fold during differentiation. mRNAs encoding other markers fatty acid oxidation such as Lp1, Sirt3, Adam15-1 and Adam15-2, and Adipor1 were enriched in differentiated mesenchymal stem cells following OX treatment (FIG. 11).
# Based on the foregoing studies, three features distinguish BAT from WAT: the appearance of multilocular oil droplets, mitochondrial enrichment, and Ucp-1 expression. […]
# [4] = test system: C3H10T1/2 cells; assay: Oxygen consumption / uncoupled respiration of cultured mesenchymal stem cells; assay type: cell-based, mouse
# From the text: To determine whether the increased respiration was uncoupled from ATP synthesis, oligomycin-insensitive respiration was first assayed as a measure of uncoupled respiration. Oligomycin inhibits F1 ATP synthetase to suppress only oxidative phosphorylation-associated respiration.
substance,measurement,setting,value
"orexin-A (EPLPDCCRQKTCSCRLYELLHGAGNHAAGILTL) [OX, human orexin A, cat; No. 24470, Anaspec]",abdominal obesity of control mice relative to OX-treated mice,[1]; OX i.p. once per day,3.5 times
same,body fat accumulated by control mice relative to OX-treated mice,[1]; OX i.p. once per day,twice as much body fat
same,control mice heavier than OX-treated mice,[1]; OX i.p. once per day,approximately 35%
same,impact on lean mass or total fluid content,[1]; OX i.p. once per day,no impact
same,% body fat,"[1]; NMR, n=4",15 ± 1.1%
same,Fat mass,"[1]; NMR, n=4",3.4 ± 0.4
same,Fluid content,"[1]; NMR, n=4",7.7 ± 1.5
same,Lean mass,"[1]; NMR, n=4",18.7 ± 1.1
same,Lean mass-fat mass ratio,"[1]; NMR, n=4",5.5 ± 0.3
same,core body temperature,[2],elevated
same,food consumption,[2],increased food consumption
same,increase in whole-body energy expenditure,[2],23-25%
same,oxygen consumption,[2],stimulated oxygen consumption
same,physical activity,[2],decreased physical activity
same,"prdm16, Pgc1-alpha, C/ebp-alpha, Dio2, Ucp-1 expression in BAT",[2],induced
same,extent of iBAT lipolysis,[2]; isoproterenol 1 mg kg−1 reference,comparable to that induced by isoproterenol
same,cells differentiated from fibroblastic to spherical morphology typical of differentiated fat cells,"[3]; 100 nM OX 3 days, then adipogenic media 7 days",greater than 90%
same,mitochondrial biogenesis,[3]; MitoTracker staining,induced extensive mitochondrial biogenesis
same,"expression of stearoyl-CoA desaturase (Scd), elevation",[3]; during differentiation,over 100 fold
same,rate and extent of cytoplasmic triglyceride accumulation,[3]; following OX treatment,comparable to that seen following treatment with BMP-7
same,"expression of adipogenic transcription factors C/ebp-alpha, Ppar-γ1, Prdm16, Pgc1-alpha, Ucp1",[3]; immunoblotting,comparable to that induced by BMP-7
same,Ucp-1 and deiodinase type 2 mRNA expression,[3]; qRT-PCR,induced
same,"mRNAs encoding inhibitory factors Necdin, Preadipocyte factor-1, Wnt10a","[3]; qRT-PCR, 3 days treatment then 7 days adipogenic induction",suppression
same,Pref-1 expression,"[3]; qRT-PCR, normalized to 18S RNA",decreased by two orders of magnitude
same,"adipogenic regulators C/ebp, Prdm16, Ppar-gamma, Foxc2, Zfp423","[3]; qRT-PCR, prior to suppression of adipogenic inhibitors",significantly increased
same,"oxygen consumption, higher",[4]; basal conditions,15 fold
same,oxygen consumption of treated cells in the presence of oligomycin,[4]; oligomycin,efficiently consumed oxygen
same,share of OX-induced respiration uncoupled from ATP synthesis,[4]; oligomycin-insensitive respiration,More than half

# — patent US20120190615A1, “METHODS AND COMPOSITIONS FOR INDUCING WEIGHT LOSS” (Sanford-Burnham Medical Research Institute, priority 2011, published 2012)
